Laboratory results from the supplement of paper PMC11665569.

Legend:
Conditions in all cases: treatment time: 5 days
KYSE410 [1] = test: relative viability (fraction of vehicle control); higher = more viable / less inhibited
Method: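 CCK-8 viability of KYSE410 cells transfected with control, YAP/TAZ or TEAD1-4 siRNAs and treated with KRAS G12C inhibitors for 5 days. Values are normalised to vehicle control.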

MIAPACA2 [2] = test: as above
Method: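 CCK-8 viability of MIAPACA2 cells with empty vector or constitutively active YAP S127A, treated with KRAS G12C inhibitors for 5 days, normalised to vehicle control.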

H358 = tested on: H358
Method: (§1)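 CCK-8 viability of KRAS G12C-mutant cancer cell lines transfected with control, YAP/TAZ or TEAD1-4 siRNAs and treated with KRAS G12C inhibitors for 5 days; IC50 fitted in Prism after normalising absorbance at 450 nm to vehicle control.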

KYSE410 [3] = tested on: KYSE410
Method: as §1

SW1573 = tested on: SW1573
Method: as §1

MIAPACA2 [4] = tested on: MIAPACA2
Method: as §1

H2030 = tested on: H2030
Method: as §1

H1373 [5] = tested on: H1373
Method: as §1

H1792 = tested on: H1792
Method: as §1

H1373 [6] = test: relative viability (fraction of vehicle control); higher = more viable / less inhibited
Method: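 CCK-8 viability of H1373 cells with empty vector or constitutively active YAP S127A, treated with KRAS G12C inhibitors for 5 days, normalised to vehicle control.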

C=C(F)C(=O)N1CCN(c2nc(OC[C@@H]3CCCN3C)nc3c2CCN(c2cccc4cccc(Cl)c24)C3)C[C@@H]1CC#N [MRTX849]
Conditions	IC50 (cell viability, 5 days) [nM]	relative viability
H358, siRNA knockdown (Con = control): Con	9.45	–
H358, siRNA knockdown (Con = control): TEAD1234_si1	5.61	–
H358, siRNA knockdown (Con = control): TEAD1234_si2	3.74	–
H358, siRNA knockdown (Con = control): YAP_WWTR1_si1	5.52	–
H358, siRNA knockdown (Con = control): YAP_WWTR1_si2	5.33	–
H1373 [5], siRNA knockdown (Con = control): Con	82.1	–
H1373 [5], siRNA knockdown (Con = control): YAP_WWTR1_si1	19.3	–
H1373 [5], siRNA knockdown (Con = control): YAP_WWTR1_si2	11.4	–
H1373 [6], log10 concentration (uM): 0, ectopic expression: YAP S127A	–	0.547
H1373 [6], log10 concentration (uM): 0, ectopic expression: empty vector (YAP experiment)	–	0.301
H1373 [6], log10 concentration (uM): 0.69897, ectopic expression: YAP S127A	–	0.0844
H1373 [6], log10 concentration (uM): 0.69897, ectopic expression: empty vector (YAP experiment)	–	0.0167
H1373 [6], log10 concentration (uM): -0.30103, ectopic expression: YAP S127A	–	0.529
H1373 [6], log10 concentration (uM): -0.30103, ectopic expression: empty vector (YAP experiment)	–	0.307
H1373 [6], log10 concentration (uM): -1, ectopic expression: YAP S127A	–	0.591
H1373 [6], log10 concentration (uM): -1, ectopic expression: empty vector (YAP experiment)	–	0.436
H1373 [6], log10 concentration (uM): -1.30103, ectopic expression: YAP S127A	–	0.578
H1373 [6], log10 concentration (uM): -1.30103, ectopic expression: empty vector (YAP experiment)	–	0.45
H1373 [6], log10 concentration (uM): -2, ectopic expression: YAP S127A	–	0.781
H1373 [6], log10 concentration (uM): -2, ectopic expression: empty vector (YAP experiment)	–	0.863
H1373 [6], log10 concentration (uM): -2.30103, ectopic expression: YAP S127A	–	0.818
H1373 [6], log10 concentration (uM): -2.30103, ectopic expression: empty vector (YAP experiment)	–	0.904
H1373 [6], log10 concentration (uM): -3, ectopic expression: YAP S127A	–	0.938
H1373 [6], log10 concentration (uM): -3, ectopic expression: empty vector (YAP experiment)	–	1.07
H1373 [6], log10 concentration (uM): -4, ectopic expression: YAP S127A	–	1.01
H1373 [6], log10 concentration (uM): -4, ectopic expression: empty vector (YAP experiment)	–	0.995
H1792, siRNA knockdown (Con = control): Con	304	–
H1792, siRNA knockdown (Con = control): YAP_WWTR1_si1	55	–
H1792, siRNA knockdown (Con = control): YAP_WWTR1_si2	45.6	–
H2030, siRNA knockdown (Con = control): Con	1500	–
H2030, siRNA knockdown (Con = control): TEAD1234_si2	28	–
KYSE410 [1], log10 concentration (uM): 0, siRNA knockdown: TEAD1-4 siRNA 1	–	0.319
KYSE410 [1], log10 concentration (uM): 0, siRNA knockdown: TEAD1-4 siRNA 2	–	0.212
KYSE410 [1], log10 concentration (uM): 0, siRNA knockdown: YAP/TAZ siRNA 1	–	0.273
KYSE410 [1], log10 concentration (uM): 0, siRNA knockdown: YAP/TAZ siRNA 2	–	0.298
KYSE410 [1], log10 concentration (uM): 0, siRNA knockdown: negative control siRNA	–	0.646
KYSE410 [1], log10 concentration (uM): 0.69897, siRNA knockdown: TEAD1-4 siRNA 1	–	0.0217
KYSE410 [1], log10 concentration (uM): 0.69897, siRNA knockdown: TEAD1-4 siRNA 2	–	0.0146
KYSE410 [1], log10 concentration (uM): 0.69897, siRNA knockdown: YAP/TAZ siRNA 1	–	0.00876
KYSE410 [1], log10 concentration (uM): 0.69897, siRNA knockdown: YAP/TAZ siRNA 2	–	0.00963
KYSE410 [1], log10 concentration (uM): 0.69897, siRNA knockdown: negative control siRNA	–	0.0324
KYSE410 [1], log10 concentration (uM): -0.30103, siRNA knockdown: TEAD1-4 siRNA 1	–	0.419
KYSE410 [1], log10 concentration (uM): -0.30103, siRNA knockdown: TEAD1-4 siRNA 2	–	0.317
KYSE410 [1], log10 concentration (uM): -0.30103, siRNA knockdown: YAP/TAZ siRNA 1	–	0.381
KYSE410 [1], log10 concentration (uM): -0.30103, siRNA knockdown: YAP/TAZ siRNA 2	–	0.395
KYSE410 [1], log10 concentration (uM): -0.30103, siRNA knockdown: negative control siRNA	–	0.715
KYSE410 [1], log10 concentration (uM): -1, siRNA knockdown: TEAD1-4 siRNA 1	–	0.582
KYSE410 [1], log10 concentration (uM): -1, siRNA knockdown: TEAD1-4 siRNA 2	–	0.45
KYSE410 [1], log10 concentration (uM): -1, siRNA knockdown: YAP/TAZ siRNA 1	–	0.481
KYSE410 [1], log10 concentration (uM): -1, siRNA knockdown: YAP/TAZ siRNA 2	–	0.445
KYSE410 [1], log10 concentration (uM): -1, siRNA knockdown: negative control siRNA	–	0.788
KYSE410 [1], log10 concentration (uM): -1.30103, siRNA knockdown: TEAD1-4 siRNA 1	–	0.704
KYSE410 [1], log10 concentration (uM): -1.30103, siRNA knockdown: TEAD1-4 siRNA 2	–	0.572
KYSE410 [1], log10 concentration (uM): -1.30103, siRNA knockdown: YAP/TAZ siRNA 1	–	0.559
KYSE410 [1], log10 concentration (uM): -1.30103, siRNA knockdown: YAP/TAZ siRNA 2	–	0.525
KYSE410 [1], log10 concentration (uM): -1.30103, siRNA knockdown: negative control siRNA	–	0.814
KYSE410 [1], log10 concentration (uM): -2, siRNA knockdown: TEAD1-4 siRNA 1	–	0.871
KYSE410 [1], log10 concentration (uM): -2, siRNA knockdown: TEAD1-4 siRNA 2	–	0.648
KYSE410 [1], log10 concentration (uM): -2, siRNA knockdown: YAP/TAZ siRNA 1	–	0.767
KYSE410 [1], log10 concentration (uM): -2, siRNA knockdown: YAP/TAZ siRNA 2	–	0.735
KYSE410 [1], log10 concentration (uM): -2, siRNA knockdown: negative control siRNA	–	0.942
KYSE410 [1], log10 concentration (uM): -2.30103, siRNA knockdown: TEAD1-4 siRNA 1	–	0.873
KYSE410 [1], log10 concentration (uM): -2.30103, siRNA knockdown: TEAD1-4 siRNA 2	–	0.793
KYSE410 [1], log10 concentration (uM): -2.30103, siRNA knockdown: YAP/TAZ siRNA 1	–	0.855
KYSE410 [1], log10 concentration (uM): -2.30103, siRNA knockdown: YAP/TAZ siRNA 2	–	0.868
KYSE410 [1], log10 concentration (uM): -2.30103, siRNA knockdown: negative control siRNA	–	0.937
KYSE410 [1], log10 concentration (uM): -3, siRNA knockdown: TEAD1-4 siRNA 1	–	0.888
KYSE410 [1], log10 concentration (uM): -3, siRNA knockdown: TEAD1-4 siRNA 2	–	0.869
KYSE410 [1], log10 concentration (uM): -3, siRNA knockdown: YAP/TAZ siRNA 1	–	0.936
KYSE410 [1], log10 concentration (uM): -3, siRNA knockdown: YAP/TAZ siRNA 2	–	0.915
KYSE410 [1], log10 concentration (uM): -3, siRNA knockdown: negative control siRNA	–	0.981
KYSE410 [1], log10 concentration (uM): -4, siRNA knockdown: TEAD1-4 siRNA 1	–	1.04
KYSE410 [1], log10 concentration (uM): -4, siRNA knockdown: TEAD1-4 siRNA 2	–	0.951
KYSE410 [1], log10 concentration (uM): -4, siRNA knockdown: YAP/TAZ siRNA 1	–	0.946
KYSE410 [1], log10 concentration (uM): -4, siRNA knockdown: YAP/TAZ siRNA 2	–	1.01
KYSE410 [1], log10 concentration (uM): -4, siRNA knockdown: negative control siRNA	–	0.987
KYSE410 [3], siRNA knockdown (Con = control): Con	1260	–
KYSE410 [3], siRNA knockdown (Con = control): TEAD1234_si1	415	–
KYSE410 [3], siRNA knockdown (Con = control): TEAD1234_si2	83.3	–
KYSE410 [3], siRNA knockdown (Con = control): YAP_WWTR1_si1	80	–
KYSE410 [3], siRNA knockdown (Con = control): YAP_WWTR1_si2	27.2	–
MIAPACA2 [2], log10 concentration (uM): 0, ectopic expression: YAP S127A	–	0.696
MIAPACA2 [2], log10 concentration (uM): 0, ectopic expression: empty vector (YAP experiment)	–	0.0786
MIAPACA2 [2], log10 concentration (uM): 0.69897, ectopic expression: YAP S127A	–	0.15
MIAPACA2 [2], log10 concentration (uM): 0.69897, ectopic expression: empty vector (YAP experiment)	–	0.0127
MIAPACA2 [2], log10 concentration (uM): -0.30103, ectopic expression: YAP S127A	–	0.687
MIAPACA2 [2], log10 concentration (uM): -0.30103, ectopic expression: empty vector (YAP experiment)	–	0.0877
MIAPACA2 [2], log10 concentration (uM): -1, ectopic expression: YAP S127A	–	0.902
MIAPACA2 [2], log10 concentration (uM): -1, ectopic expression: empty vector (YAP experiment)	–	0.217
MIAPACA2 [2], log10 concentration (uM): -1.30103, ectopic expression: YAP S127A	–	0.924
MIAPACA2 [2], log10 concentration (uM): -1.30103, ectopic expression: empty vector (YAP experiment)	–	0.309
MIAPACA2 [2], log10 concentration (uM): -2, ectopic expression: YAP S127A	–	0.979
MIAPACA2 [2], log10 concentration (uM): -2, ectopic expression: empty vector (YAP experiment)	–	0.917
MIAPACA2 [2], log10 concentration (uM): -2.30103, ectopic expression: YAP S127A	–	1.01
MIAPACA2 [2], log10 concentration (uM): -2.30103, ectopic expression: empty vector (YAP experiment)	–	0.986
MIAPACA2 [2], log10 concentration (uM): -3, ectopic expression: YAP S127A	–	1.06
MIAPACA2 [2], log10 concentration (uM): -3, ectopic expression: empty vector (YAP experiment)	–	0.964
MIAPACA2 [2], log10 concentration (uM): -4, ectopic expression: YAP S127A	–	0.993
MIAPACA2 [2], log10 concentration (uM): -4, ectopic expression: empty vector (YAP experiment)	–	0.997
MIAPACA2 [4], siRNA knockdown (Con = control): Con	115	–
MIAPACA2 [4], siRNA knockdown (Con = control): TEAD1234_si1	52.6	–
MIAPACA2 [4], siRNA knockdown (Con = control): TEAD1234_si2	49.4	–
MIAPACA2 [4], siRNA knockdown (Con = control): YAP_WWTR1_si1	34.4	–
MIAPACA2 [4], siRNA knockdown (Con = control): YAP_WWTR1_si2	60.6	–
SW1573, siRNA knockdown (Con = control): Con	926	–
SW1573, siRNA knockdown (Con = control): TEAD1234_si1	7.3	–
SW1573, siRNA knockdown (Con = control): TEAD1234_si2	4.3	–
